This is an account of results in US20240245639A1, “Dermal Application of Retinoic Acid Receptor Agonists for Amelioration of Hypertrophic Scar” (Northwestern University, priority 2023, published 2024).

Assay [1] concerns primary rabbit dermal fibroblasts. The experiment in a line: Ch55 treatment of rabbit dermal fibroblasts (morphology, ACTA2 qRT-PCR). As to conditions: 1,000 nM, 24 hours. The assay is classed as cell-based.
Description: (§4) Cell culture Primary human neonatal foreskin fibroblasts were obtained from the Skin Biology and Diseases Resource-based Center at Northwestern University. Primary rabbit dermal fibroblasts were isolated from female New Zealand White rabbits via harvesting full-thickness skin biopsies from rabbit ears, digesting overnight in a solution of 5 mg/mL dispase, and subsequently mechanically separating dermis from epidermis. After discarding epidermal tissue, dermal tissue was minced with a razor blade, and fibroblasts were liberated through collagenase-mediated digestion for growth in culture. […] Human fibroblasts and rabbit fibroblasts were cultured on tissue culture plastic (or, for immunofluorescence experiments, on glass coverslips) in DMEM+10% FBS and were serum starved in DMEM+0.1% FBS for 24 hours prior to drug treatments. When indicated, recombinant human TGF-β 1 was included in culture medium at a concentration of 10 ng/mL. Cultures were maintained in a humidified cell culture incubator at 37° C., 5% CO2, and ambient O2. For treatment with drugs and associated vehicle controls, the fraction of DMSO in the media was always maintained at <0.1% (v/v) in order to avoid confounding effects. […]
Assay [2] deals with cellular retinoic acid binding protein (CRABP). As to conditions: cited from earlier work.
For assay [3], the system named is primary human keloid fibroblasts. The experiment in a line: Collagen I deposition in keloid fibroblasts (Western blot, immunofluorescence). The class given is cell-based. The following applies: keloid fibroblasts, 1,000 nM Ch55, presence and absence of TGF-β1, 48 hours. How it is done:
(§1) Since overproduction of collagen is characteristic of fibroblasts in tissue fibrosis, including hypertrophic scar and keloid, we wished to determine whether Ch55 also affects deposition of collagen I by these fibroblasts.
(§2) Cells cultured on glass coverslips were fixed in 4% paraformaldehyde for 30 minutes at room temperature. Cells were blocked in 10% normal goat serum and incubated overnight at 4° C. in solutions of the following primary antibodies: Rabbit monoclonal α-human α-SMA (1:500 dilution, catalog #192455, Cell Signaling Technology, Danvers M A) or mouse α-human COL1A1 (1:1000 dilution, catalog #M-38c, DSHB, Iowa City, IA). The following day, cells were incubated in 1:200 diluted solutions of goat-α-rabbit IgG or donkey-α-mouse IgG Alexafluor 488-conjugated secondary antibodies (A11034 or A21202, Invitrogen) containing Alexafluor 568-conjugated phalloidin (A12380, Invitrogen) for 2 hours in the dark at room temperature, before a 20 minute counterstain in 500 ng/mL DAPI. […]
(§3) Harvested scar tissues were incubated in 0.5M ammonium thiocyanate for 20 minutes, followed by mechanical separation of dermis and epidermis using a dissecting microscope. […] Protein concentrations of cell culture and tissue samples were determined using a DC protein assay (BioRad). […]

Assay [4] deals with primary human HTS fibroblasts. The experiment in a line: Collagen I deposition in hypertrophic scar fibroblasts (Western blot, immunofluorescence). The class given is cell-based. As to conditions: HTS fibroblasts, 1,000 nM Ch55, presence and absence of TGF-β1, 48 hours. How it is done: as §1, §2, §3
On the technique in general: A western blot detects proteins with antibodies after separation by electrophoresis.

For assay [5], the system named is primary human foreskin fibroblasts. The following applies: second donor, 1,000 nM, 24 hours.
Description: as §4
Assay [6] shares this test system. Description: In vitro single-concentration screen of predicted compounds (brightfield, qRT-PCR). The assay is classed as cell-based. As to conditions: single concentration, 24 hours, vs vehicle. How it is done: In order to initially test the identified drugs, we applied each drug or DMSO vehicle control at a single concentration to primary human foreskin fibroblasts in vitro for 24 hours, before harvesting and measuring relative expression of selected myofibroblast marker genes by qRT-PCR. […] None of the drugs tested appeared to affect expression of TGFB1 (the gene encoding transforming growth factor-beta 1) at the examined concentrations.
MATERIALS AND METHODS Materials Emetine dihydrochloride hydrate, homoharringtonine, Ch55 and panobinostat were acquired from Fisher Scientific (Waltham, MA). AZD-7762 was acquired from Selleck Chemicals (Houston, TX). For in vitro work, emetine dihydrochloride hydrate was dissolved in sterile H2O at 50 mM. Homoharringtonine was dissolved in DMSO at 10 mg/mL. Panobinostat was dissolved in DMSO at 425 μM. […] AZD-7762 was dissolved in DMSO at 500 μM. Recombinant human TGF-β1 (Sigma-Aldrich) was dissolved in sterile H2O at 50 µg/mL. All-trans-retinoic acid (Thermo Scientific) was dissolved in DMSO at 10 mM.

Assay [7] shares this test system. The experiment in a line: Antagonism of fibroblast activation in presence or absence of TGF-β1 (qRT-PCR, Western blot, immunofluorescence). The class given is cell-based. The following applies: 1,000 nM Ch55, presence and absence of TGF-β1, 48 hours. How it is done: RAR Agonist all-Trans Retinoic Acid Antagonizes Myofibroblast Activation We then wished to see whether another RAR agonist could antagonize myofibroblast activation.
Cells cultured on glass coverslips were fixed in 4% paraformaldehyde for 30 minutes at room temperature. Cells were blocked in 10% normal goat serum and incubated overnight at 4° C. in solutions of the following primary antibodies: Rabbit monoclonal α-human α-SMA (1:500 dilution, catalog #192455, Cell Signaling Technology, Danvers M A) or mouse α-human COL1A1 (1:1000 dilution, catalog #M-38c, DSHB, Iowa City, IA). The following day, cells were incubated in 1:200 diluted solutions of goat-α-rabbit IgG or donkey-α-mouse IgG Alexafluor 488-conjugated secondary antibodies (A11034 or A21202, Invitrogen) containing Alexafluor 568-conjugated phalloidin (A12380, Invitrogen) for 2 hours in the dark at room temperature, before a 20 minute counterstain in 500 ng/mL DAPI. Coverslips were mounted onto slides in the dark using Fluoro Gel with DABCO (Electron Microscopy Sciences, Hatfield, PA) and imaged on an EVOS-FL imaging system (ThermoFisher).
Harvested scar tissues were incubated in 0.5M ammonium thiocyanate for 20 minutes, followed by mechanical separation of dermis and epidermis using a dissecting microscope. Isolated dermal tissues were minced with a razor blade, submerged in RIPA buffer, and homogenized in the presence of 2 mm zirconia beads using a MagNA Lyser (Roche, Basel, Switzerland). Alternatively, cell culture samples were detached from the culture surface by trypsinization, collected by centrifugation, and lysed in RIPA buffer. Protein concentrations of cell culture and tissue samples were determined using a DC protein assay (BioRad). Five micrograms of total protein were loaded onto polyacrylamide gels and subjected to SDS-PAGE before transfer to nitrocellulose membranes, blocking with 5% dry milk in TBS-T, and probing with target-specific primary antibodies overnight. Species-specific secondary antibody solutions were added to membranes, and chemiluminescent signal was developed with Amersham ECL Western blotting detection reagent using X-ray film.
Primary antibodies used were rabbit anti-α-SMA (1:1000, 19245S, Cell Signaling Technology), rabbit anti-collagen I (1:1000, ab34710, Abcam), mouse anti-collagen I (1:1000, C2456, Sigma-Aldrich), and mouse anti-GAPDH (1:5000, MA5-15738, Invitrogen). Secondary antibodies utilized were HRP goat anti-rabbit IgG(H+L) and horse anti-mouse IgG(H+L) (Vector Laboratories, Newark, CA), both used at 1:5000.
For orientation: Real-time PCR tracks product formation cycle by cycle.

Regarding `CC(C)(C)c1cc(C(=O)/C=C/c2ccc(C(=O)O)cc2)cc(C(C)(C)C)c1` [Ch55], the “effects on morphology and ACTA2 expression” value in assay [1] was “comparable effects”. For the same compound, the “affinity for CRABP” value in assay [2] was “low affinity”. The “collagen I deposition (Western blot, immunofluorescence)” value in assay [3] is listed as “dramatic reduction”. Besides, the “collagen I deposition (Western blot, immunofluorescence)” value in assay [4] is listed as “dramatic reduction”. Also, the “effects on morphology and gene expression in fibroblasts of another tissue donor” value in assay [5] is reported as “comparable effects”. Also, in assay [6], the “ACTA2 expression (qRT-PCR)” value is “clear and consistent downregulation”; the “CCN2 expression (qRT-PCR)” value is “clear and consistent downregulation”; the “MMP1 expression (qRT-PCR)” value was “without downregulating”; the “SERPINE1 expression (qRT-PCR)” value was “clear and consistent downregulation”. The “α-SMA protein in filamentous actin stress fibers (immunofluorescence)” value in assay [7] is “loss of α-SMA protein from filamentous actin stress fibers”.
